For one data set, the system named is peritoneal cells. In words: Inhibitory effects on histamine release (sensitized rat peritoneal cells, OA challenge). It counts as cell-based, male Sprague-Dawley (SD) rat. The conditions noted are these: 10 min at 37° C., OA added simultaneously; for minimal effective concentration: 10 min, read-out: Inhibition of Histamine release (lowest effective concentration to inhibit the release of histamine). How it is done:
An anti-ovalbumin (OA) mouse serum (IgE like antibody, PCA titer; 1:400-1:800) was diluted 20 times with physiological saline. A male Sprague-Dawley (SD) rat weighing 300-400 g was passively sensitized by intraperitoneal administration of 5 ml of the diluted serum. 48 Hours later, the rat was decapitated and exsanguinated. 10 ml of Tyrode's solution containing 5 units/ml of heparin was then injected into the peritoneal cavity of the rat. After mixing the solution by gentle massage for 60 seconds, the fluid in the peritoneal cavity was collected and then centrifuged for 5 minutes at 120×g to harvest peritoneal cells. The peritoneal cells were suspended in Tyrode's solution so as to adjust the concentration of 10^6 cells/ml. After preincubating 1.6 ml of the cell suspension for 4 minutes at 37° C., 0.2 ml of each test compound solution and 0.2 ml of OA solution (100 μg/ml) were added simultaneously and thereafter incubated for 10 minutes at 37° C. The reaction was terminated by ice-cooling the mixture, and the thus incubated solution was centrifuged for 5 minutes at 670×g to divide the same into a cell pellet and a supernatant liquid phase. The histamine content in each of the phases was determined by the fluorometric method of Grant et al*. Each tested pharmaceutical compound was used by dissolving it in Tyrode's solution prior to its use.
*Grant, J. A., Settle, L., Whorton, E. B. and Dupree, E., Complement-mediated releast of histamine from human basophils: II. Biochemical characterization of the reaction, J. Immunol., 117, 450 (1976)
The results of tests (1) and (2) are shown in Table 1 in which each figure in the "Inhibition of Histamine Release" column denotes the lowest effective concentration to inhibit the release of histamine.

Data set [1] has as its system passive cutaneous anaphylaxis (PCA). The data set can be described thus: Inhibitory effects on passive cutaneous anaphylaxis (PCA). The conditions noted are these: 100 mg/kg orally one hour prior to the antigen challenge, rat; for inhibition in vivo at 100 mg/kg: po, 1 h, read-out: P C A (p.o), degree of inhibition. In kind it is in vivo, male SD rat. How it is done:
A male SD rat weighing about 300 g was used, whose hair on the back had been shaved with an electric clipper. The back skin was passively sensitized by intradermal injection of 0.1 ml of anti-OA mouse serum (IgE like antibody) which had been diluted to three concentration levels. 4 Hours later, the rat was challenged by intravenous injection of an antigen solution of 2 ml/kg containing OA (1 mg/ml) and Evans blue (0.5 mg/ml). 30 Minutes after the antigen challenge, the rat was decapitated and exsanguinated. Then, the skin was reflected, and the area of blue spots was measured in milimeters by multiplying the longer diameter by the shorter diameter. […] The degree of inhibition of the test compound is expressed by the following notations.
±: 0-25% inhibition with no significant difference from the control
±: 25-50% inhibition with a significant difference from the control
++: 50-75% inhibition with a significant difference from the control
+++: 75-100% inhibition with a significant difference from the control
Each test pharmaceutical compound was suspended in a 0.2% carboxymethylcellulose solution and administered orally at a rate of 100 mg/kg one hour prior to the antigen challenge. Disodium cromoglycate which was known as an anti-allergic drug was employed as a control or reference substance.

A short description of data set [2]: Acute toxic test (LD50, up-down method). The conditions noted are these: in vivo; oral, male SD rat, 72 hours after administration. As to the method:
Each of the compounds shown in Table 2 was suspended in a 0.5% carboxymethylcellulose solution and administered orally to a male SD rat (5 weeks old). Upon the lapse of 72 hours after the administration, the LD50 value was determined by the up-down method.

Consider 23 compounds from US4290954A, “Tetrahydroxanthone derivatives” (Kowa Company Limited, priority 1978, dated 1981).

Each structure is given as a SMILES string.

Regarding `O=C(O)C1CCc2oc3ccc(-c4nnn[nH]4)cc3c(=O)c2C1` (stereo not drawn) [2-Tz 7-COOH], in the data set with peritoneal cells, the minimal effective concentration is 0.01 µg/mL. For `CC1CCc2oc3ccc(C(=O)Nc4ccccc4C(=O)O)cc3c(=O)c2C1` (stereo not drawn), the inhibition in vivo at 100 mg/kg in data set [1] lay within 0 to 25%. In addition, the minimal effective concentration in the data set on peritoneal cells came to 0.3 µg/mL. With `CC(C)(C)C1CCc2oc3ccc(-c4nnn[nH]4)cc3c(=O)c2C1` (stereo not drawn) [2-Tz 7-tert.Bu, 2-(t-butyl)-1,2,3,4-tetrahydro-7-(5'-tetrazolyl)-9-xanthone], the minimal effective concentration with peritoneal cells was 0.1 µg/mL. Regarding `O=C(Nc1nnn[nH]1)c1ccc2oc3c(c(=O)c2c1)CCCC3` [Example 2-CONHTz, 5,6,7,8-tetrahydro-N-(5'-tetrazolyl)-9-oxo-xanthene-2-carboxylic acid amide], the minimal effective concentration with peritoneal cells amounted to 0.1 µg/mL. For `O=C(O)c1cc(=O)c2c(OCC(O)COc3cccc4oc(C(=O)O)cc(=O)c34)cccc2o1` [Disodium cromoglycate, reference compound], the inhibition in vivo at 100 mg/kg in data set [1] was in the range of 0 to 25%. For the same compound, in the data set on peritoneal cells, the minimal effective concentration worked out at 3 µg/mL. Take `Cc1ccc2c(=O)c3c(oc2c1)CCC(c1nnn[nH]1)C3` (stereo not drawn) [3-CH3 7-Tz, 6-Methyl-1,2,3,4-tetrahydro-2-(5'-tetrazolyl)-9-oxo-xanthene]: the minimal effective concentration in the data set with peritoneal cells stood at 1 µg/mL.

On to `O=C(OC1CCc2oc3ccc(-c4nnn[nH]4)cc3c(=O)c2C1)c1ccccc1` (stereo not drawn), for which the minimal effective concentration with peritoneal cells came to 10 µg/mL. For orientation: LD50 means the dose expected to kill half of the subjects tested. A low value points to greater toxicity. As for `Cc1ccc2c(=O)c3c(oc2c1)CCC(C(=O)Nc1ccccc1C(=O)O)C3` (stereo not drawn) [drawing 26], in data set [2], the LD50 at 72 h was > 4000 mg/kg. On to `O=c1c2c(oc3cc(-c4nnn[nH]4)ccc13)CCCC2` [Example 3-Tz, 5,6,7,8-tetrahydro-3-(5'-tetrazolyl)-9-xanthone], for which the inhibition in vivo at 100 mg/kg in data set [1] is 50 to 75%. Besides, the minimal effective concentration in the data set on peritoneal cells is 0.3 µg/mL. On to `CC1CCc2oc3ccc(-c4nn[nH]n4)cc3c(=O)c2C1` (stereo not drawn) [2-Tz 7-CH3, 2-methyl-1,2,3,4-tetrahydro-7-(5'tetrazolyl)-9-xanthone], for which the “P C A (p.o), degree of inhibition” value in data set [1] is reported as “± (0-25% inhibition with no significant difference from the control)”. In addition, the “Inhibition of Histamine release (lowest effective concentration to inhibit the release of histamine)” value in the data set on peritoneal cells came to 0.01 µg/mL.

As to `O=C(O)c1ccc2oc3c(c(=O)c2c1)CCCC3` [Example 2-COOH, 5,6,7,8-Tetrahydro-9-oxo-xanthene-2-carboxylic acid], the minimal effective concentration with peritoneal cells is 10 µg/mL. In data set [2], the LD50 at 72 h was > 4000 mg/kg.

Regarding `CC1CCc2oc3cc(-c4nnn[nH]4)ccc3c(=O)c2C1` (stereo not drawn) [3-Tz 7-CH3, 2-methyl-1,2,3,4-tetrahydro-6-(5'-tetrazolyl)-9-xanthone], in data set [1], the inhibition in vivo at 100 mg/kg was 50 to 75%. For `CC(C)(C)C1CCc2oc3ccc(C(=O)Nc4nnn[nH]4)cc3c(=O)c2C1` (stereo not drawn) [2-CONHTz 7-tert.Bu, 7-(t-butyl)-5,6,7,8-tetrahydro-N-(5'-tetrazolyl)-9-oxo-xanthene-2-carboxylic acid amide], the inhibition in vivo at 100 mg/kg in data set [1] is 0 to 25%. Also, the minimal effective concentration with peritoneal cells was 1 µg/mL. As to `O=C(O)c1ccc2c(=O)c3c(oc2c1)CCCC3` [Example 3-COOH, 5,6,7,8-tetrahydro-9-oxo-xanthene-3-carboxylic acid], in the data set on peritoneal cells, the minimal effective concentration stood at 10 µg/mL. As to `CC(C)(C)C1CCc2oc3ccc(C(=O)O)cc3c(=O)c2C1` (stereo not drawn) [2-COOH 7-tert.Bu, 7-(t-butyl)-5,6,7,8-tetrahydro-9-oxo-xanthene-2-carboxylic acid], the inhibition in vivo at 100 mg/kg in data set [1] is 75 to 100%. In addition, the minimal effective concentration in the data set on peritoneal cells came to 0.3 µg/mL. With `Cc1cc(-c2nnn[nH]2)cc2c(=O)c3c(oc12)CCCC3` [2-Tz 4-CH3, 4-methyl-5,6,7,8-tetrahydro-2-(5'-tetrazolyl)-9-xanthone], the minimal effective concentration in the data set with peritoneal cells came out at 0.1 µg/mL. In the case of `Cc1ccc2c(=O)c3c(oc2c1)CCC(C(=O)Nc1nnn[nH]1)C3` (stereo not drawn) [3-CH3 7-CONHTz], in data set [1], the inhibition in vivo at 100 mg/kg is 0 to 25%. The minimal effective concentration with peritoneal cells is 3 µg/mL.

Consider `Cc1cc(C(=O)O)cc2c(=O)c3c(oc12)CCCC3` [2-COOH 4-CH3, 4-methyl-5,6,7,8-tetrahydro-9-oxo-xanthene-2-carboxylic acid], for which the inhibition in vivo at 100 mg/kg in data set [1] is 50 to 75%. Regarding `Cc1ccc2c(=O)c3c(oc2c1)CCC(C(=O)Nc1ccccc1C(=O)O)C3` (stereo not drawn) [drawing 19], the minimal effective concentration in the data set with peritoneal cells worked out at 3 µg/mL. For `O=C(Nc1ccccc1C(=O)O)c1ccc2oc3c(c(=O)c2c1)CCCC3` [drawing 20], in data set [1], the “P C A (p.o), degree of inhibition” value is “+ +”. Besides, the minimal effective concentration with peritoneal cells was 1 µg/mL. `CC1CCc2oc3ccc(C(=O)O)cc3c(=O)c2C1` (stereo not drawn) [2-COOH 7-CH3, 7-methyl-5,6,7,8-tetrahydro-9-oxo-xanthene-2-carboxylic acid]: the minimal effective concentration in the data set on peritoneal cells is 0.3 µg/mL. For the compound `O=c1c2c(oc3ccc(-c4nnn[nH]4)cc13)CCCC2` [Example 2-Tz, 1,2,3,4-Tetrahydro-7-(5'-tetrazolyl)-9-xanthone], the minimal effective concentration with peritoneal cells was 0.01 µg/mL. For the same compound, in data set [2], the LD50 at 72 h was > 4000 mg/kg. For the compound `O=C(Nc1ccccc1C(=O)O)c1ccc2oc3c(c(=O)c2c1)CCCC3` [drawing 25], the LD50 at 72 h in data set [2] was > 4000 mg/kg.
